Assay results as given in US6541463B1, “Inhibitors of type 5 and type 3 17β-hydroxysteroid dehydrogenase and methods for their use” (Endorecherche, Inc., priority 1998, dated 2003).
Values joined by “and” are separate entries in the source; they are usually repeats but may differ in a detail not shown here. Equal entries are not always repeated.

Biological target: T1, human type 5 17β-hydroxysteroid dehydrogenase (Homo sapiens, UniProt P42330)
T1 construct: screen again a human placental λgt11 cDNA to get the full length cDNA clone; expressed in transfected cells; host or cells: human embryonal kidney 293 cells (pCMV / pCMV-neo vector)
T1 sequence (P42330 1-323): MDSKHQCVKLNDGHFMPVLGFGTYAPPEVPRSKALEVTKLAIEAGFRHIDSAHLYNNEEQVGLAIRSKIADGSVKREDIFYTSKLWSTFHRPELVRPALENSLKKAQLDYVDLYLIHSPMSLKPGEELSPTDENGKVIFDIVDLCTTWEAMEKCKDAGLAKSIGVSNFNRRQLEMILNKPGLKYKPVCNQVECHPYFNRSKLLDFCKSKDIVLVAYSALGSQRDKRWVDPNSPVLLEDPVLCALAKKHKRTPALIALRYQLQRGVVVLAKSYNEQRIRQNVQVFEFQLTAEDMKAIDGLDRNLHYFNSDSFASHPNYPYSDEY
Test: Inhibition of human type 5 17β-HSD activity in transfected 293 cells
Type: cell-based
Details: Inhibition Type V 17β-HSD IC50, Table 4′
Protocol: The manner in which IC50 was determined is described in “Efficacy of the Preferred Inhibitors”. Lower numbers for IC50 are desirable.
Using a oligoprimer pair (5′-GGA-AAT-CGT-GAC-AGG-GAA-TGG-ATT-CCA-AAC-AG-3′, 5′-GGA-ATT-CTT-TAT-TGT-ATT-TCT-GGC-CTA-TGG-AGT-GAG-3′) derived from human aldoketoreductase (Qin et al., J. Steroid Biochem. Molec. Biol. 46: 673-679, 1993) and polymerase chain reaction (PCR), we have amplified from a human placental λgt11 cDNA library (Clontech Laboratories Inc., Palo Alto, Calif.) a cDNA fragment that was used as probe to screen again a human placental λgt11 cDNA to get the full length cDNA clone. The amplified cDNA fragment was purified on agarose gel and labeled with [α^32P]dCTP (Amersham Corp.) using the random primer labeling kit from Pharmacia Inc. PCR amplification reaction medium contained 50 mM KCl, 10 mM Tris-HCl, pH 8.3, 0.1% gelatin, 1 mM MgCl2, 250 μM dNTP, 0.25 μM oligonucleotide primers, and 200 ng of DNA prepared from human placental λgt11 cDNA library. The aqueous phase was overlaid with 75 μL of mineral oil to avoid evaporation. The mixture was heated at 98° C. for 5 min, following the temperature reduction to 72° C., 1 unit of Taq DNA polymerase was added. Using a DNA Thermal Cycler (Perkin-Elmer Corp.), 30 cycles of amplification were carried out using a step program (94° C., 1 min; 60° C., 1 min; and 72° C., 1 min)/cycle.
Approximately 5×10^5 recombinant phage plaques were screened with 1.5×10^6 cpm/ml of the probe. Prehybridization was performed for 4 h at 42° C. in 50% formamide, 5× Denhardt's solution (1× Denhardt's being 0.02% polyvinyl pyrrolidone, 0.02 Ficoll, 0.02 bovine serum albumin), 5×SSPE (1×SSPE being 0.18M NaCl, 10 mM NaH2PO4, pH 7.4, 1 mM EDTA), 0.1% SDS, and 100 μg/ml yeast tRNA. The probe was denatured by heating at 100° C. for 5 min, before being added to the hybridization solution at 42° C. overnight. Filters were then washed twice at room temperature in 2×SSC (1×SSC being […], pH 7.0), 0.1% SDS, and twice in 0.1×SSC, 0.1% SDS at 60° C. Positive recombinant plaques were purified by replating twice and grown in liquid culture. Phage DNA were isolated by centrifugation for 90 min at 105,000×g, and DNA was then isolated by phenol extraction and precipitation with isopropanol (Karen et al. 1987; In: Current Protocols in Molecular Biology (F. M. Ausubel, R. Brent, E. Kingston, D. D. Moore, T. G. Seidman, T. A. Smith and K. Struhl, eds), Wiley & Sons, New York, pp. 1.13.1-1.13.6).
The phage DNA were digested with EcoRI restriction enzymes and the resulting cDNA fragments were inserted into the EcoRI site downstream to the cytomegalovirus (CMV) promoter of the pCMV vector (kindly provided by Dr. Matthew, Cold Spring Harbor, N.Y., USA). Recombinant pCMV plasmids were amplified in Escherichia Coli DH5α competent cells, and were isolated by alkaline lysis procedure (Maniatis et al., In: Molecular cloning: a laboratory manual, Cold Spring Harbor Laboratory., 1982). Sequencing of double-stranded plasmid DNA was performed according to the dideoxy chain termination method (Sanger et al., PNAS 74: 5453-5467, 1977) using a T7 DNA polymerase sequencing kit (Pharmacia LKB Biotechnology). To avoid errors, all sequences were determined by sequencing both strands of the DNA. Oligonucleotide primers were synthesized in our laboratory with a 394 DNA/RNA synthesizer (Applied Biosystem).
The pCMV vector contain 576 nucleotides of the pCMV promoter (followed by 432 bp of small t intron (fragment 4713-4570) and poly adenylation signal (2825-2536)of SV40, followed by 1989 bp of the Pvu II(628)-AatII (2617) fragment from pUC 19 vector (New England Biolabs) that contains an E. Coli origin of replication and an ampicillin resistance gene for propagation in E. Coli. […]

In order of rising IC50:
1. CC1(C)CC[C@@]2(CCC3C4CCc5cc(C(N)=O)ccc5C4CCC32C)OC1=O (stereo partly drawn) [EM-1404]  3.2 ± 1.5 nM
2. COCCOc1cc2c(cc1C#N)C1CC[C@@]3(C)C(CC[C@@]34CCC(C)(C)C(=O)O4)C1CC2 (stereo partly drawn) [EM-1396]  13 nM

Same assay, conditions: Table 4′; 3 · 10^−6

In order of rising “Inhibition Type V 17β-HSD % Inh. at 3 · 10^−6” value:
1. CC1(C)CC[C@@]2(CC[C@H]3[C@@H]4CCc5c(cc(Br)c(O)c5Br)[C@H]4CC[C@@]32C)OC1=O [EM-1382-CS]  86%
2. COCCOc1cc2c(cc1C(F)(F)F)[C@H]1CC[C@@]3(C)[C@@H](CC[C@@]34CCC(C)(C)C(=O)O4)[C@@H]1CC2 [EM-1438, 3-(2′-Methoxyethoxy)-2-trifluoromethyl-1,3,5(10)-estratrien-17(R)-spiro-2′-(5′,5′-dimethyl-6′-oxo)tetrahydropyran]  95.2%

Same assay, conditions: Table 4′; 3 · 10^−7

In order of rising “Inhibition Type V 17β-HSD % Inh. at 3 · 10^−7” value:
1. CC1(C)CC[C@@]2(CC[C@H]3[C@@H]4CCc5c(cc(Br)c(O)c5Br)[C@H]4CC[C@@]32C)OC1=O [EM-1382-CS]  74%
2. COCCOc1cc2c(cc1C(F)(F)F)[C@H]1CC[C@@]3(C)[C@@H](CC[C@@]34CCC(C)(C)C(=O)O4)[C@@H]1CC2 [EM-1438, 3-(2′-Methoxyethoxy)-2-trifluoromethyl-1,3,5(10)-estratrien-17(R)-spiro-2′-(5′,5′-dimethyl-6′-oxo)tetrahydropyran]  90.6%

Same assay, conditions: Table 4′; read-out: Inhibition Type V 17β-HSD IC50

In order of falling IC50:
1. COc1cc2c(cc1C)C1CCC3(C)C(CCC34CCC(C)(C)C(=O)O4)C1CC2 (stereo not drawn) [EM-1412-CS]  54 nM
2. COc1c(Br)cc2c(c1Br)CCC1C2CCC2(C)C1CCC21CCC(C)(C)C(=O)O1 (stereo not drawn) [EM-1385-CS]  51 nM
3. CCOc1ccc2c(c1)CCC1C2CC[C@@]2(C)C1CC[C@@]21CCC(C)(C)C(=O)O1 (stereo partly drawn) [EM-1369, 3-Ethoxy-1,3,5(10)-estratrien-17(R)-spiro-2′-(5′,5′-dimethyl-6′-oxo)-tetrahydropyran]  46 nM
4. COCCOc1ccc2c(c1)CCC1C2CCC2(C)C1CCC21CCC(C)(C)C(=O)O1 [EM-1368-CS, 3-Methoxyethoxy-1,3,5(10)-estratrien-17(R)-spiro-2′-(5′,5′-dimethyl-6′-oxo)-tetrahydropyran]  21 nM
5. CC1CC(=O)OC2(CCC3C4CCc5cc(O)ccc5C4CCC32C)C1 [PB-132-142, 3-Hydroxy-1,3,5(10)-estratrien-17(R)-spiro-2′-(4′-methyl-6′-oxo)tetrahydropyran]  19 ± 1.5 nM
6. CC1(C)CC[C@@]2(CCC3C4CCc5cc6oncc6cc5C4CC[C@@]32C)OC1=O (stereo partly drawn) [EM-1407-CS, 1,3,5(10)-estratrien-(2,3-oximino)-17(R)-spiro-2′-(5′,5′-dimethyl-6′-oxo)tetrahydropyran]  12 ± 3 nM
7. CC1(C)CCC2(CCC3C4CCc5cc(OS(C)(=O)=O)ccc5C4CCC32C)OC1=O (stereo not drawn) [EM-1365-CS]  12 nM
8. COCCOc1ccc2c(c1)C(=O)CC1C2CCC2(C)C1CCC21CCC(C)(C)C(=O)O1 (stereo not drawn) [EM-1408-CS]  5.5 ± 1 nM
9. CC1(C)CCC2(CCC3C4CCc5cc(O)c(C#N)cc5C4CCC32C)OC1=O (stereo not drawn) [EM-01645]  4.5 ± 0.3 nM
10. CC1(C)CCC2(CCC3C4CCc5cc(O)c([N+](=O)[O-])cc5C4CCC32C)OC1=O (stereo not drawn) [EM-1125-CS]  2 nM

`COCCOc1cc2c(cc1Cl)C1CCC3(C)C(CCC34CCC(C)(C)C(=O)O4)C1CC2` (stereo not drawn) [EM-1371-CS] was tested, and the IC50 was 19 nM and 20 nM.
For `CC1CCC2(CCC3C4CCc5ccccc5C4CCC32C)OC1=O` (stereo not drawn) [EM-1025], the IC50 was 6.1 nM and 4.3 nM.
